According to PubChem BioAssay (NCI):
Values joined by “and” are separate entries in the source; they are usually repeats but may differ in a detail not shown here. Equal entries are not always repeated.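 How tested: cells in 96-well plates exposed to compound for 48 hours at five concentrations. GI50 = concentration required for 50% inhibition of growth. TGI is the concentration that stops growth completely.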 Where a SMILES comes first, the peptide text is derived from it. [ ]: non-standard residue; d: D form. The star is where a group is joined. ξ: configuration not given here. X16 = COC1=CC(=O)N(C(=O)C(O*)C(C)C)C1Cc1ccccc1; ξNMe2Val = CC(C)C(C(=O)*)N(C)C; NMeV = CN[CH](C(=O)O)C(C)C

Experiments:
Assay in all cases: inhibition of tumour cell growth, NCI panel, 48 h
SK-MEL-28 melanoma = tested on: SK-MEL-28 melanoma
ACHN renal = tested on: ACHN renal
A498 renal = tested on: A498 renal
NCI-H522 lung = tested on: NCI-H522 lung
SK-MEL-5 melanoma = tested on: SK-MEL-5 melanoma
SNB-19 CNS = tested on: SNB-19 CNS
SK-OV-3 ovarian = tested on: SK-OV-3 ovarian
RPMI-8226 leukemia = tested on: RPMI-8226 leukemia
SF-268 CNS = tested on: SF-268 CNS
NCI-H460 lung = tested on: NCI-H460 lung

Row | SMILES | TGI (SK-MEL-28 melanoma) [µM] | TGI (ACHN renal) [µM] | TGI (A498 renal) [µM] | TGI (NCI-H522 lung) | TGI (SK-MEL-5 melanoma) [µM] | TGI (SNB-19 CNS) [µM] | TGI (SK-OV-3 ovarian) [µM] | TGI (RPMI-8226 leukemia) [µM] | TGI (SF-268 CNS) [µM] | TGI (NCI-H460 lung) | GI50 (A498 renal) [µM] | GI50 (SK-MEL-5 melanoma) [µM] | GI50 (SNB-19 CNS) [µM] | GI50 (SK-OV-3 ovarian) [µM] | GI50 (NCI-H460 lung) [µM] | GI50 (RPMI-8226 leukemia) [µM] | GI50 (SF-268 CNS) [µM] | GI50 (NCI-H522 lung) [µM]
1 | OCC(O)COc1ccc(Br)cc1 (centres undefined) | > 100 | > 100 | > 100 | > 100 µM | > 100 | > 100 | > 100 | > 100 | > 100 | – | – | – | – | – | – | – | – | –
2 | N/C(CC/C(N)=N\O)=N\O | > 100 | > 100 | > 100 | > 100 µM | > 100 | > 100 | – | – | > 100 | > 100 µM | – | – | – | – | – | – | – | –
3 | COC1=CC(=O)N(C(=O)C(OC(=O)C2CCCN2C(=O)C2CCCN2C(=O)C(C(C)C)N(C)C(=O)C(NC(=O)C(C(C)C)N(C)C)C(C)C)C(C)C)C1Cc1ccccc1 (centres undefined) (ξNMe2Val-V[NMeV]PP-X16; configuration not given here) | 0.00681 | – | 0.165 | 0.00182 µM | – | 0.118 | – | > 4 | 0.31 | 0.519 µM | 0.00643 | < 0.0004 | 0.00267 | 0.0042 | < 0.0004 | < 0.0004 | < 0.0004 | –
4 | COc1ccc(-n2c(CCCC(=O)O)nc3c2C(=O)c2ccccc2C3=O)cc1 | > 100 | > 100 | > 100 | > 100 µM | – | > 100 | > 100 | > 100 | > 100 | > 100 µM | – | – | – | – | – | – | – | –
5 | Oc1c(Cl)c2nccnc2c2ccccc12 | > 100 | > 100 | > 100 | > 100 µM | > 100 | – | > 100 | > 100 | > 100 | > 100 µM | – | – | – | – | – | – | – | –
6 | CCOC(=O)c1cc2cc(Cc3ccc4[nH]c(C(=O)OCC)cc4c3)ccc2[nH]1 | > 100 | 44 | 36.4 | – | – | 30.6 | 55.4 | > 100 | 38.5 | > 100 µM | – | – | – | – | – | – | – | –
7 | CC12CC3c4ccccc4CN1C3(c1ccccc1)OC2=O (centres undefined) | > 100 | > 100 | > 100 | > 100 µM | > 100 | > 100 | > 100 | – | > 100 | – | – | – | – | – | – | – | – | –
8 | CC1(C)CCc2c(cc3c(c2O)CCC(C)(C)O3)O1 | > 100 | > 100 | > 100 | > 100 µM | > 100 | > 100 | > 100 | – | > 100 | > 100 µM | – | – | – | – | – | – | – | –
9 | C=C1CC2CC[C@@]34C[C@@H]5O[C@@H]6C(O[C@H]7CC[C@H](CC(=O)OC8[C@@H](C)C9OC%10C[C@]%11(C[C@@H]%12O[C@@]%13(C[C@@H](C)[C@@H]%12O%11)C[C@H](C)[C@@H]%11OC%12CC(C(O)CO)OC%12C[C@@H]%11O%13)OC%10CC9O[C@H]8C[C@H]8O[C@@H](CC[C@@H]1O2)C[C@@H](C)C8=C)O[C@@H]7[C@@H]6O3)C5O4 (some centres undefined) | – | – | 0.0167 | 0.000594 µM and < 0.000148 µM | 0.00591 | 0.0127 | – | > 1.48 | > 1.48 | 0.00317 µM and 0.028 µM | < 0.000148 | – | < 0.000148 | < 0.000148 | < 0.000148 | < 0.000148 | < 0.000148 | < 0.000148
10 | COC(=O)Cc1c([C@@H]2Nc3ccccc3[C@H]2CC(=O)OC)[nH]c2ccccc12 | > 100 | > 100 | > 100 | – | 21 | > 100 | > 100 | 49.4 | > 100 | 65.5 µM | – | – | – | – | – | – | – | –
11 | COc1c2cc(C(C)(C)C)cc1CSCc1cc(C(C)(C)C)cc(c1OC)CCCCC2 | > 50 | > 50 | > 50 | – | > 50 | > 50 | > 50 | – | > 50 | > 50 µM | – | – | – | – | – | – | – | –
12 | N#CI1OC(=O)c2ccccc21 | > 100 | > 100 | > 100 | 55.6 µM | > 100 | – | > 100 | > 100 | > 100 | > 100 µM | – | – | – | – | – | – | – | –
13 | COc1c(C2(c3ccc(F)cc3)SCCCS2)c(=O)c1=O | > 100 | > 100 | – | – | > 100 | > 100 | > 100 | > 100 | > 100 | > 100 µM | – | – | – | – | – | – | – | –
14 | O=S(=O)(O)c1cc(Cl)c(O)c2ncc(Cl)cc12 | > 100 | > 100 | > 100 | – | > 100 | > 100 | – | > 100 | – | > 100 µM | – | – | – | – | – | – | – | –
15 | c1ccc2[nH]c(-c3nc4ccccc4o3)nc2c1 | > 100 | > 100 | > 100 | > 100 µM | > 100 | – | > 100 | > 100 | > 100 | > 100 µM | – | – | – | – | – | – | – | –
16 | N#Cc1c(-c2ccco2)c2c(n(C3OC(CO)C(O)C(O)C3O)c1=S)CCCC2 (centres undefined) | > 100 | > 100 | > 100 | > 100 µM | > 100 | – | > 100 | – | > 100 | > 100 µM | – | – | – | – | – | – | – | –
17 | CC1C(c2ccc(N(C)C)cc2)c2cc3c(cc2OC1N1CCCC1)OCO3 (centres undefined) | > 100 | > 100 | 72.3 | > 82 µM | > 100 | > 100 | – | 97.5 | > 100 | > 95.3 µM | – | – | – | – | – | – | – | –
18 | c1cc(-c2cscc2-c2ccsc2)cs1 | > 100 | > 100 | > 100 | – | > 100 | – | > 100 | > 100 | > 100 | > 100 µM | – | – | – | – | – | – | – | –
19 | Cc1c2c(n3c(nc4ccccc43)c1C#N)N(c1ccc(Cl)cc1)CC2 | > 100 | > 100 | > 100 | > 100 µM | > 100 | > 100 | > 100 | – | > 100 | > 100 µM | – | – | – | – | – | – | – | –
20 | CCOC(=O)NNC(=O)NCCNC(=O)NNC(=O)OCC | > 100 | – | > 100 | > 100 µM | > 100 | > 100 | > 100 | > 100 | > 100 | > 100 µM | – | – | – | – | – | – | – | –
21 | COc1ccc(C2SCC(=O)N2N=C2NC(=O)CC(=O)N2)cc1 (centres undefined) | > 100 | > 100 | > 100 | > 100 µM | > 100 | – | > 100 | > 100 | > 100 | > 100 µM | – | – | – | – | – | – | – | –
22 | Cc1ccc(OP2(=O)Oc3ccc4ccccc4c3CN2c2ccc(Cl)cc2)cc1C (centres undefined) | > 100 | – | > 100 | > 100 µM | > 100 | > 100 | > 100 | > 100 | > 100 | > 100 µM | – | – | – | – | – | – | – | –
